This passage reports IC50 results from ChEMBL document CHEMBL3301562, “MMV Box screening against Plasmodium falciparum protein kinases and aminoacyl tRNA synthetases”.

The structures appear in SMILES notation. A value given as a limit tells only on which side of the number the result lay.

Holding throughout (format): functional
Assay [1] has as its target T1, Putative uncharacterized protein pk7 (Plasmodium falciparum, UniProt O96214).
T1 sequence (O96214 whole entry): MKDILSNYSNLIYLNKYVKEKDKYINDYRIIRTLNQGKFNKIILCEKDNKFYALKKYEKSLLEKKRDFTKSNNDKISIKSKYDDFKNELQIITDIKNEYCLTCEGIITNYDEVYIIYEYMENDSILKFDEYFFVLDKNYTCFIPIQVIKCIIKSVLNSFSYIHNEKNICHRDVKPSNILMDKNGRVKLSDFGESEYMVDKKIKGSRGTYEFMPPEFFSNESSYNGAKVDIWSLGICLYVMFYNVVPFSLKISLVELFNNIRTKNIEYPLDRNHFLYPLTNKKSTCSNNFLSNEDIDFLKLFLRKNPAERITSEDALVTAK
In words: Final concentrations were 1 uM ATP, 2 mM DTT, 20 mM MgCl2, 2 mM MnCl2, 0.01% BSA, and 6 ug/ml PK7, in a buffer of 20 mM Tris-HCl (pH 7.5). The enzyme itself was the only substrate present (since autophosphorylation occurs); 100 uM 1NA-PP1 was used as a control inhibitor. Incubation time was 3 hours.

In assay [2] the target is Calcium-dependent protein kinase 1 (Plasmodium falciparum, UniProt P62344). Put plainly: MMV: CDPK1 Protein kinase inhibition assay using recombinant PfCDPK1, syntide 2 peptide substrate, ATP and KinaseGlo to measure % inhibition at 1 uM MMV box compound. On the technique in general: Kinase-Glo measures the ATP left after a reaction by luminescence.
For assay [3], the target named is Lysine--tRNA ligase (Plasmodium falciparum (isolate 3D7), UniProt Q8IDJ8). In words: MMV: KRS recombinant Plasmodium falciparum Lysyl-tRNA-synthetase, assay with yeast tRNA, ATP, and lysine and 3 uM MMV malaria box compound, assay read out with kinase glo as % inhibition.
In assay [4] the target is T2, Calcium-dependent protein kinase 4 (Plasmodium falciparum (isolate 3D7), UniProt Q8IBS5).
T2 sequence (Q8IBS5 whole entry): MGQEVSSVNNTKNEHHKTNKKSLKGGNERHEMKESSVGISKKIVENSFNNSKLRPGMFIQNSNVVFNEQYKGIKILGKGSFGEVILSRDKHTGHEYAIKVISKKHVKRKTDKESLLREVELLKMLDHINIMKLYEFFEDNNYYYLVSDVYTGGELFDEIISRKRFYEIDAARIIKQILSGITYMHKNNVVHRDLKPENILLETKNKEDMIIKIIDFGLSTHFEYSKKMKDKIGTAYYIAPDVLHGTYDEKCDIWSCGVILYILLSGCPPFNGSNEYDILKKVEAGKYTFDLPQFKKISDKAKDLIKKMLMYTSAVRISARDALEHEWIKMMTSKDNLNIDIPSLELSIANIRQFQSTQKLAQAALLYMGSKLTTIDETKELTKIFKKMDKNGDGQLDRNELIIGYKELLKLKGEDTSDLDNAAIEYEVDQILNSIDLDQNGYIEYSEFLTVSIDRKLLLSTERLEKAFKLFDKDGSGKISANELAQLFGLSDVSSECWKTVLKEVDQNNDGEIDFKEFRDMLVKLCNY
In words: MMV: CDPK4 Protein kinase inhibition assay using recombinant PfCDPK4, syntide2 peptide substrate, ATP and KinaseGlo to measure % inhibition at 1 uM MMV box compound.

In assay [5] the target is T3, Proline--tRNA ligase (Plasmodium falciparum (isolate 3D7), UniProt Q8I5R7).
T3 sequence (Q8I5R7 whole entry): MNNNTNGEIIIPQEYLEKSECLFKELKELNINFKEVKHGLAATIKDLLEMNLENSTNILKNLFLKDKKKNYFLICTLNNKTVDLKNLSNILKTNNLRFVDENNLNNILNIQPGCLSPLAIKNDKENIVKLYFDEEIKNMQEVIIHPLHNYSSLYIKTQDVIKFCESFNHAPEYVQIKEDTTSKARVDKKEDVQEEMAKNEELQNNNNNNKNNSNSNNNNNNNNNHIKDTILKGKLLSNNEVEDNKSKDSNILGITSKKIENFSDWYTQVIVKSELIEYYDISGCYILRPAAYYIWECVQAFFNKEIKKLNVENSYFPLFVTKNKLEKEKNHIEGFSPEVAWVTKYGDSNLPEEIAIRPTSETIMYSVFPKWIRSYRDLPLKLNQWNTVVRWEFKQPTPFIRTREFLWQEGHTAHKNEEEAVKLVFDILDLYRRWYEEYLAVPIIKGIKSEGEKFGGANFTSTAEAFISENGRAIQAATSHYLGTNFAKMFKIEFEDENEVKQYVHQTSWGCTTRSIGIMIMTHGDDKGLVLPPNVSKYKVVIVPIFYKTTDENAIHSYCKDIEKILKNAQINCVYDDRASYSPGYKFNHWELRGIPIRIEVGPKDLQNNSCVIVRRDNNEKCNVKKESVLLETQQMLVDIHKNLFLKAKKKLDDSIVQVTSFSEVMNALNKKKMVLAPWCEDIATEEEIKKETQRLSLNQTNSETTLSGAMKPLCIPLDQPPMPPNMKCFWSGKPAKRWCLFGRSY
Put plainly: MMV: ProRS recombinant Plasmodium falciparum Prolyl-tRNA-synthetase, assay with yeast tRNA, ATP, and proline and 3 uM MMV malaria box compound, assay read out with kinase glo as % inhibition.

Assay [6] addresses T4, Mitogen-activated protein kinase (Plasmodium falciparum, UniProt Q25917).
T4 sequence (Q25917 whole entry): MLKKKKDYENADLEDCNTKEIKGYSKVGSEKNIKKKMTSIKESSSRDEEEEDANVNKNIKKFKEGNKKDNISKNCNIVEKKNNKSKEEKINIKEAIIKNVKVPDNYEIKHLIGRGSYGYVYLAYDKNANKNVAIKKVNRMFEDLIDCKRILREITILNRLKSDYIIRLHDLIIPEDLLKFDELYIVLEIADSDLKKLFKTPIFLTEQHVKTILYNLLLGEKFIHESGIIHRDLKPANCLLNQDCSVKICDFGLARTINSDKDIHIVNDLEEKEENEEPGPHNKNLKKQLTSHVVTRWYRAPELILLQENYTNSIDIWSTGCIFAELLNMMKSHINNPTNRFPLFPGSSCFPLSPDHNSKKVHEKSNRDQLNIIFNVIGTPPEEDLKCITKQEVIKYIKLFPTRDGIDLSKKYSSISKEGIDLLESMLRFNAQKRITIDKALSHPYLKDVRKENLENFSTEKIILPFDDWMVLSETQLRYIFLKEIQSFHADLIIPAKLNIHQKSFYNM
Put plainly: Final concentrations were 1 uM ATP, 0.5 mM DTT, 1 mM MgCl2, 0.5 mg/mL BSA, and 10 ug/ml MAP2 in a buffer of 50 mM HEPES (pH 7.0). 0.5 mg/mL histone III-S served as the substrate (13); 100 uM AMP-PNP, an ATP analog, was used as a control inhibitor. Incubation time was 4 hours.

Assay [7] concerns the target T5, Cdk-related protein kinase 6 (Plasmodium falciparum, UniProt O77239).
T5 sequence (O77239 whole entry): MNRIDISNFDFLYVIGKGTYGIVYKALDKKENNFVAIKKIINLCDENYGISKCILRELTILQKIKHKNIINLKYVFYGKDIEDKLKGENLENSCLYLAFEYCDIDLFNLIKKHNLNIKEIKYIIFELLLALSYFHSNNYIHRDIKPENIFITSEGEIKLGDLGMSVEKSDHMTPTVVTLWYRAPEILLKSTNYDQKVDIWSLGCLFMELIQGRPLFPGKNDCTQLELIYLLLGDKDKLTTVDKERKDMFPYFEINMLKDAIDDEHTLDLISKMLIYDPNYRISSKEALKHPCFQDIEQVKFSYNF
Put plainly: Final concentrations were 1.5 uM ATP, 5 mM MnCl2, and 15 ug/ml PK6 in a buffer of 100 mM Tris-HCl (pH 7.5). 50 ug/mL MBP was provided as the substrate; 10 uM staurosporine was used as a control inhibitor. Incubation time was 3 hours and 40 minutes.The catalytic activity of each kinase was considered proportional to ATP consumed, as determined from measurements of residual [ATP] with the luciferase-based reagent Kinase-Glo (Promega) following incubation. Luminescence (proportional to residual [ATP]) was measured on the plate readers FLx800 (BioTek Instruments, Winooski, VT, USA) and MicroBeta2.

Chain of Calcium-dependent protein kinase 1 (P62344 whole entry): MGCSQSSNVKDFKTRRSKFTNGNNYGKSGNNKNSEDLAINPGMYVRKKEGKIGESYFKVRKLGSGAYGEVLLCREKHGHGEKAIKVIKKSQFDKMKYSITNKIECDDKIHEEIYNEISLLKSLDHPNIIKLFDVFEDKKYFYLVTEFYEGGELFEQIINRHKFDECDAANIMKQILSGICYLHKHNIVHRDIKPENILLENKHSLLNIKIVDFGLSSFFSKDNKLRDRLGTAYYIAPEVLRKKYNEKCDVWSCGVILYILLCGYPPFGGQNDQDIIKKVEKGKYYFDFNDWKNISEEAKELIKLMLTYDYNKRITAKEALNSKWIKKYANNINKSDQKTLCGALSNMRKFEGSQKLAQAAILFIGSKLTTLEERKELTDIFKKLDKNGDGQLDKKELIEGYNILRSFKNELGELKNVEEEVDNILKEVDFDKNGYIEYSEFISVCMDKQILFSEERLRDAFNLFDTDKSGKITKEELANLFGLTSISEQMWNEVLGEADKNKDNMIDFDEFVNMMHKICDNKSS
Chain of Lysine--tRNA ligase (Q8IDJ8 whole entry): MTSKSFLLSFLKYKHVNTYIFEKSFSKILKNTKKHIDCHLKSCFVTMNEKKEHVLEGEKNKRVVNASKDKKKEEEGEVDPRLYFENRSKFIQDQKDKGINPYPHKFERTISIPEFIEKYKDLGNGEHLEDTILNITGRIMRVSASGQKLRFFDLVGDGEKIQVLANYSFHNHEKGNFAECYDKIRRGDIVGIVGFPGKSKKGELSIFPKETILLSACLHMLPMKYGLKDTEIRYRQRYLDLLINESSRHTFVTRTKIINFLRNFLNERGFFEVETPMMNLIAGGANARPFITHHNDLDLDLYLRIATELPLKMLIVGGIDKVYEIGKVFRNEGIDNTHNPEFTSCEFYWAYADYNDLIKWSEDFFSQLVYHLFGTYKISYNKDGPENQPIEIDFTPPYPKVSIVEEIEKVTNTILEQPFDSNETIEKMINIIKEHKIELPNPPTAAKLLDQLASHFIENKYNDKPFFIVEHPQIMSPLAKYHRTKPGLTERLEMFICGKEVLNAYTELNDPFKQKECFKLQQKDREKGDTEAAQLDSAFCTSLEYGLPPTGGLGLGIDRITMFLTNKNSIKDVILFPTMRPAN

In the case of `COc1ccc(C2=C(c3ccc(OC)cc3)C3(c4ccccc4)C(=O)C2(c2ccccc2)C2C(=O)N(c4ccc(C)cc4)C(=O)C23)cc1` (stereo not drawn), the IC50 (in general, the concentration at which inhibition is half-maximal) is above 1 µM in assay [1]; above 1 µM in assay [2]; above 2.5 µM in assay [3]; above 1 µM in assay [4]; above 2.5 µM in assay [5]; above 1 µM in assay [6]. For the same compound, the IC50 in assay [7] was above 1 µM.
On to `O=C(Nc1ccccc1O)c1ccc(-c2ccc(Cl)cc2Cl)o1`, for which the IC50 in assay [1] was above 1 µM; in assay [2], above 1 µM; in assay [3], above 2.5 µM; in assay [4] it was above 1 µM; in assay [5], above 2.5 µM; in assay [6], above 1 µM. The compound also yielded an IC50 in assay [7] above 1 µM.
On to `COc1ccc(C(=O)NC(c2ccccc2Cl)c2cc(Cl)c3cccnc3c2O)cc1` (stereo not drawn), for which the IC50 in assay [1] is above 1 µM; in assay [2], above 1 µM; in assay [3], above 2.5 µM; in assay [4] it was above 1 µM; in assay [5], above 2.5 µM; in assay [6], above 1 µM. The compound also had an IC50 in assay [7] above 1 µM.
In the case of `c1ccc(CNc2nc(Nc3ccccc3)nc3ccccc23)cc1`, the IC50 is above 1 µM in assay [1]; above 1 µM in assay [2]; above 2.5 µM in assay [3]; above 1 µM in assay [4]; above 2.5 µM in assay [5]; above 1 µM in assay [6]. The same compound came in with an IC50 in assay [7] above 1 µM.
On to `O=C(NCC1Cc2cccc(-c3ccncc3)c2O1)c1csc2c1CCCC2` (stereo not drawn), for which the IC50 in assay [1] is above 1 µM; in assay [2], above 1 µM; in assay [3], above 2.5 µM; in assay [4], above 1 µM; in assay [5], above 2.5 µM; in assay [6] it was above 1 µM. The compound further gave an IC50 in assay [7] above 1 µM.
Take `OC(CNCc1ccccc1)Cn1c2ccccc2c2ccccc21` (stereo not drawn): the IC50 is above 1 µM in assay [1]; above 1 µM in assay [2]; above 2.5 µM in assay [3]; above 1 µM in assay [4]; above 2.5 µM in assay [5]; above 1 µM in assay [6]. Besides, the IC50 in assay [7] was above 1 µM.
Take `O=C(NCC(c1ccsc1)N1CCCCCC1)c1ccc(C(F)(F)F)cc1` (stereo not drawn): the IC50 was above 1 µM in assay [1]; above 1 µM in assay [2]; above 2.5 µM in assay [3]; above 1 µM in assay [4]; above 2.5 µM in assay [5]; above 1 µM in assay [6]. In assay [7], this compound had an IC50 above 1 µM.
`COc1ccc2c(=O)cc(C(Cl)(Cl)Cl)oc2c1`: the IC50 is above 1 µM in assay [1]; above 1 µM in assay [2]; above 2.5 µM in assay [3]; above 1 µM in assay [4]; above 2.5 µM in assay [5]; above 1 µM in assay [6]. Moreover, the IC50 in assay [7] was above 1 µM.
For `COc1ccc(N2CCN(C(CNC(=O)CC(C)(C)C)c3ccc4c(c3)OCO4)CC2)cc1` (stereo not drawn), the IC50 in assay [1] was above 1 µM; in assay [2], above 1 µM; in assay [3], above 2.5 µM; in assay [4], above 1 µM; in assay [5], above 2.5 µM; in assay [6], above 1 µM. Further, the IC50 in assay [7] is above 1 µM.
As for `CC(=O)c1sc(NC(=O)Nc2ccc(C)cc2C)nc1C`, the IC50 in assay [1] was above 1 µM; in assay [2] it was above 1 µM; in assay [3], above 2.5 µM; in assay [4], above 1 µM; in assay [5] it was above 2.5 µM; in assay [6], above 1 µM. In addition, the IC50 in assay [7] is above 1 µM.
For the compound `CCN(CC)CCNc1ccnc2cc(Cl)ccc12`, the IC50 was above 1 µM in assay [1]; above 1 µM in assay [2]; above 2.5 µM in assay [3]; above 1 µM in assay [4]; above 2.5 µM in assay [5]; above 1 µM in assay [6]. In assay [7], this compound had an IC50 above 1 µM.
Consider `O=C(NC1CCCC1)c1ccc(N2CCC(NCc3cccc(C(F)(F)F)c3)CC2)cc1`, for which the IC50 was above 1 µM in assay [1]; above 1 µM in assay [2]; above 2.5 µM in assay [3]; above 1 µM in assay [4]; above 2.5 µM in assay [5]; above 1 µM in assay [6]. Also, the IC50 in assay [7] is above 1 µM.
As to `CCOC(=O)c1cnc2c(C)cc(C)cc2c1Nc1ccc(OC)c(OC)c1`, the IC50 in assay [1] is above 1 µM; in assay [2], above 1 µM; in assay [3] it was above 2.5 µM; in assay [4], above 1 µM; in assay [5], above 2.5 µM; in assay [6] it was above 1 µM. The same compound displayed an IC50 in assay [7] above 1 µM.
Turning to `O=C(O)C1Cc2c([nH]c3ccccc23)C(c2ccc(Cl)cc2Cl)N1` (stereo not drawn), the IC50 is above 1 µM in assay [1]; above 1 µM in assay [2]; above 2.5 µM in assay [3]; above 1 µM in assay [4]; above 2.5 µM in assay [5]; above 1 µM in assay [6]. This compound also gave an IC50 in assay [7] above 1 µM.
